Article PMC6749294, “Comparison of the Utility of RP-TLC Technique and Different Computational Methods to Assess the Lipophilicity of Selected Antiparasitic, Antihypertensive, and Anti-inflammatory Drugs” (Molecules, 2019)
Read-outs that look alike come from different tables or passages of the source.

Key:
[1] = cited from earlier work; for Rm0: RP-18F254 plates, acetonitrile-water; for logP: calculated from regression curve Rm0 = f(logP)
[2] = design: method as in PMID 9809446; conditions: methanol-water, cited from earlier work
[3] = RP-TLC lipophilicity on RP-18F254 plates (Soczewiński-Wachtmeister's and Ościk's equations); type: physicochemical; conditions: for RMWO(m) / RMWO(a): Ościk's equation; for RMWO(m) / RMWS(m) / φ0(m): methanol-water mobile phase; for RMWO(m) / RMWS(a) / RMWS(m) / RMWO(a): silica gel RP-18F254; for RMWS(a) / RMWS(m): Soczewiński-Wachtmeister's equation; for RMWS(a) / φ0(a) / RMWO(a): acetone-water mobile phase; for φ0(a) / φ0(m): φ0 = RMWS/S (Equation 6)
Experimental: The chromatographic analysis was carried on RP-18F254 plates (Art.1.05559, E. Merck, Darmstadt, Germany). The solutions of the investigated compounds were spotted separately onto chromatographic plates using precise micropipettes in a quantity of 5 µL each.
The chromatograms were developed using the mixtures of methanol-water and acetone-water in different volume compositions, as follows:
For antiparasitic drugs: • - the content of methanol was gradually varied by 10% (v/v) from 20–100 (%, v/v), • - the content of acetone was gradually varied by 10% (v/v) from 10–100 (%, v/v).
In the case of antihypertensive drugs, the content of methanol and acetone was gradually varied by 5% (v/v) from 60–100 (%, v/v).
For non-steroidal anti-inflammatory drugs: • - the content of methanol was gradually varied by 5% (v/v) from 60–100 (%, v/v), • - the content of acetone was gradually varied by10% (v/v) from 20–100 (%, v/v).
Next, the chamber was saturated with solvent vapor for 20 min. The chromatograms were developed at room temperature, e.g., 22 ± 1 °C. The development distance was 75 mm. The plates were dried at room temperature, e.g., 22 ± 1 °C. Each chromatogram was done in triplicate.
Densitometric scanning was done using a TLC Scanner 3 with WinCATS 1.4.2 software manufactured by Camag (Muttenz, Switzerland) in the reflectance/absorbance mode.
Densitometric scanning was performed at a respective absorption maximum for the analyzed drugs. The slit dimensions were 10.00 × 0.40 mm, Macro; the optimized optical system was light; the scanning speed was 20 mm/s; the data resolution was 100 μm/step; the measurement type was remission; the measurement mode was absorption; and the optical filter was second order. Each track was scanned three times, and a baseline correction (lowest slope) was used.
In order to determine the lipophilicity parameter based on Soczewiński-Wachtmeister′s procedure, the RF values obtained under the applied chromatographic conditions were converted into RM values according to the expression:(4) RM=log1/RF−1 The linear relationship between RM and the volume content of methanol and acetone in the mobile phase (φ) permits an extrapolation of the calculated RM values to the zero concentration of methanol and acetone in accordance with Soczewiński-Wachtmeister′s Equation (5). […] (5) RM=RMWS−Sφ where: RM is the RM value of the studied compound, RMWS is the RM value extrapolated to zero concentration of methanol and acetone (organic modifier) in the used mobile phase, i.e., methanol-water and acetone-water, respectively, S is the slope of the regression plot (see Supplementary Materials), and φ is the volume fraction of methanol and acetone in the mobile phase. In addition to this, on the basis of the said plot, i.e., Soczewiński-Wachtmeister′s equation, another chromatographic descriptor (φ0) has been calculated according to the following formula (Equation (6)): (6) φ0 = RMWS/S where: RMWS is the chromatographic parameter obtained by using Soczewiński-Wachtmeister’s equation in accordance with Equation (5), and S is the regression slope.
The measurable lipophilicity value expressed as RMWO was determined according to Ościk’s equation [29, 30, 32]:(7) Gxorg=xorg1−xorg/RM−xorgRMorg−1−xorgRMWO=axorg+b where: RM, RMorg, and RMWO are the solute retention factors in the mixed mobile phase, pure organic solvent, and water, respectively; xorg is the molar fraction of the organic solvent in the mobile phase; a and b are constants in the linear correlation between G(xorg) and xorg in the used mobile phase.

[4] = design: method as in PMID 12972078; conditions: RP-HPLC, cited from earlier work; for log kwODS: ODS column μBondapak C18; for log kw IAM: immobilized artificial membrane (IAM.PC.MG) column
[5] = n-octanol-water, cited from earlier work
[6] = Experimental n-octanol-water partition coefficient (logPexp) from literature and databases; type: physicochemical; conditions: average of the differing literature logPexp values (± spread)
From the text: The next stage of this paper was a comparison of all obtained RMWS and RMWO parameters calculated using […] equations with theoretical and experimental logP values obtained in an n-octanol-water system.

[7] = design: method as in doi:10.1016/S0021-9673(01)88013-4; conditions: RP-HPLC; cited from earlier work
[8] = cited from earlier work
[9] = cited from earlier work; remark: listed apart in the source
[10] = Prediction of logPexp from φ0(a) with Equation (3); type: physicochemical; conditions: chromatography with acetone-water mobile phase; calculated from φ0(a) with Equation (3); read-out: predicted logPexp
From the text: The continuation of our lipophilicity study of fifteen biocompounds belonging to the three groups of drugs and the determination of another lipophilicity descriptor, namely φ0, in accordance with Equation (6), allowed us to obtain the two new lipophilicity parameters φ0(a) and φ0(m) for a proper used mobile phase, i.e., acetone-water (a) and methanol-water (m), respectively. What is important is that the calculation of this parameter was possible because a satisfactory linear relationship between both, i.e., the intercept and slope (RMWS and S), in each obtained Soczewiński-Wachtmeister’s equation was achieved (r > 0.98). In order to estimate the utility of these parameters for the prediction of the theoretical as well as experimental parameter of the lipophilicity of a large group of investigated compounds, a correlation matrix between all previously described (thus chromatographic) parameters, as well as the computed and experimental partition coefficient, was done. The results of the correlation analysis indicate that among all φ0 values the best is the one obtained for acetone-water, which is to say φ0(a). […]
This fact confirms the potential utility of the additionally calculated chromatographic parameter φ0(a) to determine the partition coefficient of all examined compounds. It can be very useful in the case of the lack of this value, like for example for the experimental logP of nilvadipine, lacidipine and carprofen. A test was performed on Equation (3) to determine the values of logPexp for the three abovementioned compounds. The results of the predicted logPexp were: 3.65 for nilvadipine, 3.96 for lacidipine and 3.54 for carprofen, respectively. It can be observed that the newly obtained logPexp values are in good agreement with the other previously described theoretical logP of these compounds. They are placed in the similar range of logP values.

Compound	Rm0 [1]	logP [1]	RMWO(m) [3]	RMWS(a) [3]	RMWS(m) [3]	φ0(a) [3]	φ0(m) [3]	log kwODS [4]	log kw IAM [4]	logPexp ([5]; ref 36)	logP [6]	RMWO(a) [3]	chromatographic logP [10]	further results
CC(C(=O)O)c1cccc(C(=O)c2ccccc2)c1 (stereo not drawn) [Ketoprofen, ketoprofen]	1.8491	2.66	3.76	1.26	1.47	0.640	0.687	2.83	1.02					RMO ([2]; Nano-Sil CNF254 plates): 2.31; RMO ([2]; RP-18WF254 plates, Soczewiński-Wachtmeister's equation): 1.74
CC(C(=O)O)c1ccc(-c2ccccc2)c(F)c1 (stereo not drawn) [Flurbiprofen, flurbiprofen]	2.5076	3.82	2.26	1.87	1.98	0.930	0.771	2.91	1.58	4.16 [36]	4			logPexp ([5]; ref 42): 3.84 [42]
Cc1ncc([N+](=O)[O-])n1CCO [Metronidazole, metronidazole]			1.21	0.65	0.91	0.398	0.564			–0.02 [36]	0.1	0.94		logk' [7]: –0.067; hydrophilic-hydrophobic properties ([8]; according to Hoffmann et al. and Jokipii et al.): lipophilic compound that penetrates well into most tissues; hydrophilic-hydrophobic properties ([8]; reported by Biagi): hydrophilic; hydrophilic-hydrophobic properties ([8]; reported by Másson et al.): very hydrophilic; logPexp ([5]; ref 34): –0.22; logPexp ([5]; ref 35): –0.10; logPexp ([5]; ref 37): 0.75 [37]; RMW ([9]; RP-TLC, Soczewiński-Wachtmeister's equation): 0.08; RMW(paraffin) ([9]; stationary phase liquid paraffin): 0.60; RMW(squalene) ([9]; stationary phase squalene): 0.53
CCOC(=O)C1=C(C)NC(C)=C(C(=O)OCC)C1c1ccccc1/C=C/C(=O)OC(C)(C)C [Lacidipine, lacidipine]			6.89	4.51	5.01	0.793	0.937					6.63	3.96	
CC(C(=O)O)c1ccc2c(c1)[nH]c1ccc(Cl)cc12 (stereo not drawn) [Carprofen, carprofen]			2.77	2.56	2.34	0.754	0.820	3.85	1.81				3.54	
COC(=O)C1=C(C#N)NC(C)=C(C(=O)OC(C)C)C1c1cccc([N+](=O)[O-])c1 (stereo not drawn) [Nilvadipine, nilvadipine]			5.57	4.07	3.66	0.764	0.886					6.28	3.65	
